Assay: Stabilization/storage of gold nanoparticles by exposure to a phosphino amino acid
Assay type: physicochemical
Description: In addition to tuning particle size, an important purpose of stabilizers is to prevent agglomeration and/or oxidation of the gold nanoparticles during storage. All of the stabilizers identified above have been discovered to provide beneficial stability for gold nanoparticles produced through methods of the invention. […] Carbohydrates are an additional stabilizer discovered to be useful with practice of methods of the invention. More than one stabilizer may be employed. Any selected stabilizer can be added at any time during the synthesis of the nanoparticles. Preferably, the stabilizer is present in solution prior to introduction of the final reactant (i.e., one or both of gold salt and phosphino amino acid are added to a solution that already contains a stabilizer).
Still additional example methods of the invention are directed to methods for storing and/or stabilizing gold nanoparticles. It has been discovered the use of phosphino amino acids, with TAAC being a preferred example, provide beneficial levels of stability for storing gold nanoparticles. In an example method of the invention, gold nanoparticles (that may have been, for example, produced through a method other than one of the present invention) are exposed to a phosphino amino acid such as TAAC to prevent their agglomeration.

CC(NCP(CNC(C)C(=O)O)CNC(C)C(=O)O)C(=O)O (centres unmarked) [TAAC, trimeric alanine phosphine conjugate]
protection of gold nanoparticles from oxidation: help “protect” gold nanoparticles from oxidation | prevention of agglomeration of gold nanoparticles (over periods of 7, 14 and even 30 days): substantially prevent agglomeration

Source: US8241393B2, “Methods and articles for gold nanoparticle production” (The Curators of the University of Missouri, priority 2005, dated 2012)
